From publication PMC4791210 (International immunopharmacology, 2015)

What was measured:
human neutrophils = assay: Direct activation of Ca2+ flux in human neutrophils; type: cell-based; conditions: Neutrophil, read-out: Human Neutrophils Activation (EC50, μM)
FPR1 [1] = target: T1, FPR1 (Homo sapiens, UniProt P21462); assay: Direct activation of Ca2+ flux in FPR1 transfected HL-60 cells; type: cell-based
T1 sequence (P21462 1-350): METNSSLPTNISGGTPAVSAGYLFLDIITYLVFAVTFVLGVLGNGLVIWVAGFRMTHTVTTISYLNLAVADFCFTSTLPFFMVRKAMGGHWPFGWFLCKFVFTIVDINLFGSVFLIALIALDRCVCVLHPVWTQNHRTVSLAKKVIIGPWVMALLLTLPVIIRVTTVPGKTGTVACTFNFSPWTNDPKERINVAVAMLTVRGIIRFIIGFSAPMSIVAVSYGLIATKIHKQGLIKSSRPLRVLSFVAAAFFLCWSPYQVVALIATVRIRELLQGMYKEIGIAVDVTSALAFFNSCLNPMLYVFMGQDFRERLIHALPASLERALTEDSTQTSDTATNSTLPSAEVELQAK

FPR1 [2] = conditions: high concentrations; cited from earlier work
human monocytes = conditions: read-out: IC50, inhibition of fMLF-induced Ca2+ flux in human monocytes; cited from earlier work
FPR1 [3] = target: T1, FPR1; conditions: cited from earlier work

EC50 (human neutrophils)	EC50 (FPR1 [1])	Compound	Concentrations that antagonize FPR1 and inhibit 3H-fMLF binding (FPR1 [2])	IC50 (human monocytes)	Binding of fluorescent FPR1 ligand in human neutrophils (FPR1 [3])
49.5 ± 5.1 µM	40.3 ± 4.5 µM	C[C@H](CCC(=O)O)[C@H]1CC[C@H]2[C@@H]3[C@H](O)C[C@@H]4C[C@H](O)CC[C@]4(C)[C@H]3CC[C@]12C [Chenodeoxycholic acid (CDCA), Chenodeoxycholic acid]	≥ 100 µM	40 µM	
		CC(=O)OC1COC(OC2C(O)C(C)OC(OC3C(OC4CCC5(C)C(CCC6(C)C5CC=C5C7CC(C)(C)CCC7(C(=O)O)CCC56C)C4(C)CO)OCC(O)C3O)C2O)C(O)C1OC(C)=O [SMG-1, hederagenin 3-O-(3,4-O-di-acetyl-α-L-arabinopyranoside)-(1→3)-α-l-rhamnopyranosyl-(1→2)-α-l-arabinopyranoside]			blocked binding
